# pIC50: −log10 of the molar value. Where two headings read alike, the source gives them in different places.
# Assays:
# androgen receptor (AR) = target: T1, androgen receptor (AR) (Homo sapiens, UniProt P10275, T878A); assay: eGFP cellular AR transcription assay; type: cell-based
# T1 construct: stably transfected eGFP-expressing LNCaP human prostate cancer cells (LN-ARR2PB-eGFP) containing an androgen responsive probasin-derived promoter; endogenous in cells; host or cells: LNCaP (LN-ARR2PB-eGFP)
# T1 sequence (P10275 1-920 T878A): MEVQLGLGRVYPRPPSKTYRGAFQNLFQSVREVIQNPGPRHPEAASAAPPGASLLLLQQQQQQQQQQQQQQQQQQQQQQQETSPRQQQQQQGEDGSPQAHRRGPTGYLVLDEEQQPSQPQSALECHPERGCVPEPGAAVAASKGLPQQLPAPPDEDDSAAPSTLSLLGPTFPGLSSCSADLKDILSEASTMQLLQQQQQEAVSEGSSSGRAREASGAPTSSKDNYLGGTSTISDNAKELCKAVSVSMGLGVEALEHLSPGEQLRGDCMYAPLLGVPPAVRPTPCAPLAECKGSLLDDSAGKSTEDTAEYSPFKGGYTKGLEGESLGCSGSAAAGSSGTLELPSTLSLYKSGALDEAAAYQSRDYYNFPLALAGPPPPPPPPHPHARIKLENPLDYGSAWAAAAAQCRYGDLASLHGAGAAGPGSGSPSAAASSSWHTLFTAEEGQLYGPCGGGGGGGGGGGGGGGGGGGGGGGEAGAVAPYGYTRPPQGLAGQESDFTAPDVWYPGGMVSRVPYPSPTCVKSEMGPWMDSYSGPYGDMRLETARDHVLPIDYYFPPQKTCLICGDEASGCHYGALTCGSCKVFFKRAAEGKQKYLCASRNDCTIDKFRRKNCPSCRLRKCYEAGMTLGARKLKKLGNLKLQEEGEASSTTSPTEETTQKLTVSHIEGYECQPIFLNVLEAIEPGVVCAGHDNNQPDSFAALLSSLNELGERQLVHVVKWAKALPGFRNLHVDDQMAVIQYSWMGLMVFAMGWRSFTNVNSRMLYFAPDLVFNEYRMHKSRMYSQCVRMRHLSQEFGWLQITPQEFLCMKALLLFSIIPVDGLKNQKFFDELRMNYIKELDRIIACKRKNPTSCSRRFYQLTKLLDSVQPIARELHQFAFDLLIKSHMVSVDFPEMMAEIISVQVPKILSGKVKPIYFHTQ
# Procedure, shortened: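 AR transcriptional activity is read as eGFP expression from a probasin-derived androgen-responsive promoter. Compound titrated 0-100 μM in the presence of 0.1 nM R1881; 35,000 cells/well.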
# PSA = assay: Prostate Surface Antigen (PSA) assay, PSA excreted into the media; type: cell-based, human; conditions: same plates as eGFP assay; for pIC50: Homo sapiens, 72 h
# Experimental: The evaluation of PSA excreted into the media was performed in parallel to the eGFP assay using the same plates (see above description). After the cells were incubated for 3 days 150 μl of the media was taken from each well, and added to 150 μl of PBS.
# [1] = LN-ARR2PB-eGFP LNCaP cells, 0.1 nM R1881, 3 days, 0-100 μM compound
# [2] = LN-ARR2PB-eGFP LNCaP cells, 0.1 nM R1881, 3 days, 0-100 μM compound, read-out: IC50 (eGFP)
# [3] = media after 3 days, read-out: IC50 (PSA)
# [4] = LN-ARR2PBeGFP LNCaP cells, 0.1 nM R1881, 3 days incubation, read-out: eGFP IC50
# [5] = PSA excreted into media, 3 days incubation, read-out: PSA IC50
# [6] = LN-ARR2PBeGFP LNCaP cells, 0.1 nM R1881, 3 days incubation
# [7] = PSA excreted into media, 3 days incubation
compound,measurement,setting,value
Cc1cccc2c(-c3ccc4c(Br)ccc(Br)c4n3)c[nH]c12 [13 679],IC50 (eGFP),androgen receptor (AR); [1],IC50 (eGFP) = Inactive
same,IC50 (PSA),PSA; media after 3 days,IC50 (PSA) = Inactive
Fc1ccc2c(-c3ccc4ccccc4n3)c[nH]c2c1 [13 576],pIC50,androgen receptor (AR); [2],6.84
same,pIC50,PSA; [3],7.32
c1ccc2nc(-c3c[nH]c4ccccc34)ncc2c1 [Compound 13587],pIC50,androgen receptor (AR); [4],6.12
same,pIC50,PSA; [5],6.28
CC1(C)c2ccccc2NC1c1c[nH]c2ccc(Cl)cc12 (stereo not shown) [Compound 13522],pIC50,androgen receptor (AR); [4],5.47
same,pIC50,PSA; [5],5.66
COC(=O)c1cccc2c(-c3ccc(Br)cc3)c[nH]c12 [13 736],pIC50,androgen receptor (AR); [2],6.21
same,pIC50,PSA; [3],6.17
O=[N+]([O-])c1cccc2nc(-c3c[nH]c4c(Cl)cc(F)cc34)ccc12 [Compound 13667],eGFP IC50,androgen receptor (AR); [6],Inactive
same,PSA IC50,PSA; [7],Inactive
N#C/C(=C\c1ccc(F)cc1)c1c[nH]c2ccccc12 [Compound 13436],pIC50,"androgen receptor (AR); eGFP IC50, LN-ARR2PBeGFP LNCaP cells, 0.1 nM R1881, 3 days incubation",6.22
same,pIC50,PSA; [5],6.40
Fc1ccc(Nc2nc3ccccc3[nH]2)cc1Cl [Compound 13145],pIC50,androgen receptor (AR); [4],5.77
same,pIC50,PSA; [5],5.61
Cc1cc(F)cc2c(-c3cc(C#N)c4ccccc4n3)c[nH]c12 [Compound 13657],eGFP IC50,androgen receptor (AR); [6],Inactive
same,PSA IC50,PSA; [7],Inactive
Brc1cccc2c(-c3cnc4ccccc4c3)c[nH]c12 [13 653],pIC50,androgen receptor (AR); [2],5.95
same,pIC50,PSA; [3],6.54
c1ccc2c(-c3nn[nH]n3)c[nH]c2c1 [13 701],IC50 (eGFP),androgen receptor (AR); [1],IC50 (eGFP) = Inactive
same,IC50 (PSA),PSA; media after 3 days,IC50 (PSA) = Inactive
Cc1cc(F)cc2c(-c3cnc4cccc(Cl)c4n3)c[nH]c12 [Compound 13705],eGFP IC50,androgen receptor (AR); [6],Inactive
same,PSA IC50,PSA; [7],Inactive
Fc1cc(Cl)c2[nH]ccc2c1 [Compound 13721],eGFP IC50,androgen receptor (AR); [6],Inactive
same,PSA IC50,PSA; [7],Inactive
CNC(=O)c1cccc2nc(-c3c[nH]c4c(C)c(F)ccc34)ccc12 [Compound 13615],eGFP IC50,androgen receptor (AR); [6],Inactive
same,PSA IC50,PSA; [7],Inactive
Fc1ccc2cc[nH]c2c1Cl [Compound 13725],eGFP IC50,androgen receptor (AR); [6],Inactive
same,PSA IC50,PSA; [7],Inactive
c1ccc2cc(-c3c[nH]c4ncccc34)ccc2c1 [13 676],pIC50,androgen receptor (AR); [2],7.28
same,pIC50,PSA; [3],7.47
COc1ccc2[nH]cc(C3Nc4ccccc4C3(C)C)c2c1 (stereo not shown) [Compound 13536],pIC50,androgen receptor (AR); [4],5.66
same,pIC50,PSA; [5],5.60
c1ccc(-c2cccc(-c3c[nH]c4ncccc34)c2)cc1 [13 734],pIC50,androgen receptor (AR); [2],4.96
same,pIC50,PSA; [3],5.38
Cc1ccc2[nH]cc(C3Nc4ccccc4C3(C)C)c2c1 (stereo not shown) [Compound 13535],pIC50,androgen receptor (AR); [4],5.82
same,pIC50,PSA; [5],5.73
Fc1cccc2ccc(Cl)nc12 [Compound 13729],eGFP IC50,androgen receptor (AR); [6],Inactive
same,PSA IC50,PSA; [7],Inactive
Fc1cc2c(-c3ccc4cccc(F)c4n3)c[nH]c2c(F)c1F [Compound 13774],pIC50,androgen receptor (AR); [4],6.15
same,pIC50,PSA; [5],6.11
Cc1cccc2c(-c3cccnc3)c[nH]c12 [13 655],pIC50,androgen receptor (AR); [2],5.78
same,pIC50,PSA; [3],6.21
c1ccc2ncc(-c3c[nH]c4ccncc34)cc2c1 [13 637],IC50 (eGFP),androgen receptor (AR); [1],IC50 (eGFP) = Inactive
same,IC50 (PSA),PSA; media after 3 days,IC50 (PSA) = Inactive
c1ccc2cc(-c3c[nH]c4cccnc34)ccc2c1 [13 703],pIC50,androgen receptor (AR); [2],7.00
same,pIC50,PSA; [3],7.01
Fc1cccc2ccc(-c3c[nH]c4c(F)cccc34)nc12 [Compound 13697],pIC50,androgen receptor (AR); [4],7.54
same,pIC50,PSA; [5],7.54
Fc1ccc(-c2c[nH]c3ccccc23)nc1 [Compound 13742],pIC50,androgen receptor (AR); [4],6.66
same,pIC50,PSA; [5],6.70
Cc1[nH]c2ccccc2c1SCc1ccccc1 [Compound 13416],pIC50,androgen receptor (AR); [4],5.57
same,pIC50,PSA; [5],5.63
Brc1cccc2c(-c3ccc4ccccc4n3)c[nH]c12 [13 582],pIC50,androgen receptor (AR); [2],7.28
same,pIC50,PSA; [3],7.39
Fc1ccc2ccc(-c3c[nH]c4c(Cl)cccc34)nc2c1 [Compound 13694],pIC50,androgen receptor (AR); [4],7.15
same,pIC50,PSA; [5],7.17
Cc1cccc2c(-c3nc(Br)cs3)c[nH]c12 [Compound 13766],pIC50,androgen receptor (AR); [2],7.35
same,pIC50,androgen receptor (AR); [4],7.35
same,pIC50,PSA; [5],7.70
same,pIC50,PSA; [3],7.70
Cc1ccc2[nH]cc(-c3ccc4ccccc4n3)c2c1 [Compound 13577],pIC50,androgen receptor (AR); [4],5.49
same,pIC50,PSA; [5],5.76

# Reference: US10633338B2, “Binding Function 3 (BF3) site compounds as therapeutics and methods for their use” (THE UNIVERSITY OF BRITISH COLUMBIA, priority 2014, dated 2020)
